These results are taken from PubChem BioAssay AID1259407 (Chemical Carcinogenesis Research Information System (CCRIS), 2018).

This series concerns CCRIS mutagenicity, Ames/micronucleus/aberration tests. In words: CCRIS mutagenicity studies.
Setting [1] is: Test System: AMES SALMONELLA TYPHIMURIUM, Strain/Indicator: TA100, Metabolic Activation: NONE, Method: PREINCUBATION
[2] abbreviates: Test System: AMES SALMONELLA TYPHIMURIUM, Strain/Indicator: TA98, Metabolic Activation: NONE, Method: PREINCUBATION
Setting [3] is: Test System: AMES SALMONELLA TYPHIMURIUM, Strain/Indicator: TA98, Metabolic Activation: NONE, Method: STANDARD PLATE.
[4] abbreviates: Test System: AMES SALMONELLA TYPHIMURIUM, Strain/Indicator: TA98, Metabolic Activation: RAT, LIVER, S-9, AROCLOR 1254, Method: STANDARD PLATE.
The mark [5] stands for this setting: Test System: AMES SALMONELLA TYPHIMURIUM, Strain/Indicator: TA100, Metabolic Activation: NONE, Method: STANDARD PLATE.
[6] abbreviates: Test System: AMES SALMONELLA TYPHIMURIUM, Strain/Indicator: TA100, Metabolic Activation: RAT, LIVER, S-9, AROCLOR 1254, Method: STANDARD PLATE.
The mark [7] stands for this setting: Test System: AMES SALMONELLA TYPHIMURIUM, Strain/Indicator: TA1535, Metabolic Activation: RAT, LIVER, S-9, AROCLOR 1254, Method: STANDARD PLATE.
Where [8] appears, read: Test System: AMES SALMONELLA TYPHIMURIUM, Strain/Indicator: TA1537, Metabolic Activation: RAT, LIVER, S-9, AROCLOR 1254, Method: STANDARD PLATE.

Activity calls are given as the source filed them. How the calls were made is not given here.

With `CC12OOC1(COC(=O)Nc1ccc(Cl)cc1)Oc1ccccc12` (centres undefined), the mutagenic call under setting [1] is “active; positive”.
Regarding `CCc1cccc(CC)c1NC(=O)CCl`, the mutagenic call reads like this: under setting [2], “inactive; negative”; (Test System: AMES SALMONELLA TYPHIMURIUM, Strain/Indicator: TA98, Metabolic Activation: RAT, LIVER, MICROSOMES, PHENOBARBITAL, Method: PREINCUBATION) “inactive; negative”; under setting [1], “active; positive”; (Test System: AMES SALMONELLA TYPHIMURIUM, Strain/Indicator: TA100, Metabolic Activation: RAT, LIVER, MICROSOMES, PHENOBARBITAL, Method: PREINCUBATION) “active; positive”.
As for `Cc1cnc2ccccc2n1`, the mutagenic call under setting [2] is “inactive; negative”; the mutagenic call (Test System: AMES SALMONELLA TYPHIMURIUM, Strain/Indicator: TA98, Metabolic Activation: RAT, LIVER, S-9, AROCLOR 1254, Method: PREINCUBATION) is “inactive; negative”; the mutagenic call under setting [1] is “inactive; negative”; the mutagenic call (Test System: AMES SALMONELLA TYPHIMURIUM, Strain/Indicator: TA100, Metabolic Activation: RAT, LIVER, S-9, AROCLOR 1254, Method: PREINCUBATION) is “inactive; negative”; the mutagenic call (Test System: AMES SALMONELLA TYPHIMURIUM, Strain/Indicator: TA102, Metabolic Activation: NONE, Method: PREINCUBATION) was “inactive; negative”; the mutagenic call (Test System: AMES SALMONELLA TYPHIMURIUM, Strain/Indicator: TA102, Metabolic Activation: RAT, LIVER, S-9, AROCLOR 1254, Method: PREINCUBATION) was “inactive; negative”.
Take `C[C@]12C=CC3=C4CCC(=O)C=C4CC[C@H]3[C@@H]1CC[C@@H]2O`: the mutagenic call by setting is: under setting [3], “inactive; negative”; (Test System: AMES SALMONELLA TYPHIMURIUM, Strain/Indicator: TA98, Metabolic Activation: RAT, LIVER, S-9, AROCLOR 1254 (5%, 30%), Method: PREINCUBATION) “inactive; negative”; under setting [4], “inactive; negative”; (Test System: AMES SALMONELLA TYPHIMURIUM, Strain/Indicator: TA98, Metabolic Activation: RAT, LIVER, S-9, Method: STANDARD PLATE) “inactive; negative; toxicity at 3000 ug/plate”; under setting [5], “inactive; negative”; (Test System: AMES SALMONELLA TYPHIMURIUM, Strain/Indicator: TA100, Metabolic Activation: RAT, LIVER, S-9, AROCLOR 1254 (5%, 30%), Method: PREINCUBATION) “inactive; negative”. Also, the mutagenic call runs as follows: under setting [6], “inactive; negative”; (Test System: AMES SALMONELLA TYPHIMURIUM, Strain/Indicator: TA100, Metabolic Activation: RAT, LIVER, S-9, Method: STANDARD PLATE) “inactive; negative”; (Test System: AMES SALMONELLA TYPHIMURIUM, Strain/Indicator: TA102, Metabolic Activation: RAT, LIVER, S-9, AROCLOR 1254 (5%, 30%), Method: PREINCUBATION) “inactive; negative”; under setting [7], “inactive; negative”; (Test System: AMES SALMONELLA TYPHIMURIUM, Strain/Indicator: TA1535, Metabolic Activation: RAT, LIVER, S-9, Method: STANDARD PLATE) “inactive; negative”; under setting [8], “inactive; negative”. The mutagenic call was “inactive; negative” (Test System: AMES SALMONELLA TYPHIMURIUM, Strain/Indicator: TA1537, Metabolic Activation: RAT, LIVER, S-9, Method: STANDARD PLATE); “inactive; negative” (Test System: AMES SALMONELLA TYPHIMURIUM, Strain/Indicator: TA1538, Metabolic Activation: RAT, LIVER, S-9, AROCLOR 1254, Method: STANDARD PLATE); “inactive; negative” (Test System: AMES SALMONELLA TYPHIMURIUM, Strain/Indicator: TA1538, Metabolic Activation: RAT, LIVER, S-9, Method: STANDARD PLATE); “inactive; negative” (Test System: CHINESE HAMSTER V-79, Strain/Indicator: V-79/6-THIOGUANINE, Metabolic Activation: NONE, Method: STANDARD PLATE); “inactive; negative” (Test System: CHINESE HAMSTER V-79, Strain/Indicator: V-79/6-THIOGUANINE, Metabolic Activation: RAT, LIVER, S-9, AROCLOR 1254, Method: STANDARD PLATE); “inactive; negative” (Test System: CHO/HGPRT, Strain/Indicator: CHO-K1-BH4, Metabolic Activation: NONE, Method: STANDARD PLATE). For the same molecule, where the note is “Test System: CHO/HGPRT, Strain/Indicator: CHO-K1-BH4, Metabolic Activation: RAT, LIVER, S-9, AROCLOR 1254, Method: STANDARD PLATE”, the mutagenic call was “inactive; negative”.
In the case of `CC(=O)OCC1=CO[C@@H](OC(=O)CC(C)C)[C@H]2C1=C[C@H](OC(=O)CC(C)C)[C@]21CO1`, the mutagenic call reads like this: under setting [3], “inactive; negative”; under setting [4], “inactive; negative”; under setting [5], “inactive; negative”; under setting [6], “active; positive”; (Test System: AMES SALMONELLA TYPHIMURIUM, Strain/Indicator: TA1535, Metabolic Activation: NONE, Method: STANDARD PLATE) “inactive; negative”; under setting [7], “inactive; negative”. Further, the mutagenic call by setting is: (Test System: AMES SALMONELLA TYPHIMURIUM, Strain/Indicator: TA1537, Metabolic Activation: NONE, Method: STANDARD PLATE) “inactive; negative”; under setting [8], “inactive; negative”; (Test System: E. COLI, Strain/Indicator: WP2, Metabolic Activation: NONE, Method: STANDARD PLATE) “inactive; negative”; (Test System: E. COLI, Strain/Indicator: WP2, Metabolic Activation: RAT, LIVER, S-9, AROCLOR 1254, Method: STANDARD PLATE) “inactive; negative”; (Test System: E. COLI, Strain/Indicator: WP2 UVRA, Metabolic Activation: NONE, Method: STANDARD PLATE) “active; positive”; (Test System: E. COLI, Strain/Indicator: WP2 UVRA, Metabolic Activation: RAT, LIVER, S-9, AROCLOR 1254, Method: STANDARD PLATE) “inactive; negative”.
Take `COc1nncc2cnccc12`: the mutagenic call under setting [2] was “inactive; negative”; the mutagenic call (Test System: AMES SALMONELLA TYPHIMURIUM, Strain/Indicator: TA98, Metabolic Activation: RAT, LIVER, S-9, PCB, Method: PREINCUBATION) is “inactive; negative”; the mutagenic call under setting [1] is “inactive; negative”; the mutagenic call (Test System: AMES SALMONELLA TYPHIMURIUM, Strain/Indicator: TA100, Metabolic Activation: RAT, LIVER, S-9, PCB, Method: PREINCUBATION) is “inactive; negative”.
As to `Cc1cc(N(C)C)ccc1N=Nc1ccccc1`, the mutagenic call reads like this: (Test System: AMES SALMONELLA TYPHIMURIUM, Strain/Indicator: TA98, Metabolic Activation: RAT, LIVER, MICROSOMES, 2-METHYL-4-DIMETHYLAMINOAZOBENZENE, Method: PREINCUBATION) “inactive; negative”; (Test System: AMES SALMONELLA TYPHIMURIUM, Strain/Indicator: TA98, Metabolic Activation: RAT, LIVER, MICROSOMES, AROCLOR 1254, Method: PREINCUBATION) “active; positive”; (Test System: AMES SALMONELLA TYPHIMURIUM, Strain/Indicator: TA98, Metabolic Activation: RAT, LIVER, MICROSOMES, Method: PREINCUBATION) “inactive; negative”; under setting [4], “active; positive”; (Test System: AMES SALMONELLA TYPHIMURIUM, Strain/Indicator: TA98, Metabolic Activation: RAT, LIVER, S-9, KC500 OR PHENOBARBITAL, Method: LIQUID SUSPENSION) “active; positive”; under setting [6], “active; positive”. The mutagenic call (Test System: AMES SALMONELLA TYPHIMURIUM, Strain/Indicator: TA100, Metabolic Activation: RAT, LIVER, S-9, KC500 OR PHENOBARBITAL, Method: LIQUID SUSPENSION) is “active; positive” and the mutagenic call (Test System: UDS RODENT HEPATOCYTES, Strain/Indicator: THY INCORP (NON-S-PHASE), Method: AUTORADIOGRAPHY) is “active; positive”.
